Results on one substance are retold here after patent publication US12325744B2, “Methods for reducing post-operative cognitive dysfunction (POCD)” (The Kennedy Trust for Rheumatology Research, priority 2010, dated 2025).

Entries after “also recorded” stand apart in the source; their conditions may differ.

One assay has as its system C57BL/6 male mice. Kind of assay: Trace fear conditioning, contextual fear response after LPS injection. Format: in vivo. The settings on record: LPS within 30 min after training, tested day 3, IL-1Ra pre-treatment. The method, then:
Treatment. LPS derived from Escherichia Coli endotoxin ([…], InvivoGen, USA, 1 mg/kg) was dissolved in normal saline and injected intraperitoneally. IL-1Ra (Amgen, Anakinra 100 mg/kg, Nederlands) was given subcutaneously immediately before LPS administration. Dose response curve from LPS or IL-1Ra was obtained from our pilot studies to provoke or to suppress moderate degree of microglia activation respectively. Control animals were injected with equivalent volumes (0.1 ml) of saline. Mice from each treatment group were randomly assigned for assessment of either cytokine response or cognitive behavior, in order to obviate possible confounding effects of behavioral testing on inflammatory markers.
Behavioral measurement (conditioning). The behavioral study was conducted using a dedicated conditioning chamber (Med Associates Inc., USA). Mice were trained and tested on separate days. LPS was injected within 30 minutes following training. […] Three days after training, mice were returned to the same chamber in which training occurred (context), and freezing behavior was recorded. […] Approximately 3 h later, freezing was recorded in a novel environment and in response to the cue (tone). The auditory cue was then presented for 3 min, and freezing scored again. Freezing scores for each subject were expressed as a percentage for each portion of the test. […]

Another assay relates to microglia. Kind of assay: Hippocampal microglia anti-CD11b immunohistochemistry grading (0-3) after tibial surgery. Format: in vivo. The settings on record: wild type mice, 1 day after surgery. The text has this: Immunohistochemistry. Fixed brains were collected for immunohistochemical DAB staining for CD11 b and scored as previously described^21. (For further details please refer to supplemental methods).
Under terminal anesthesia with pentobarbital, mice were euthanized and perfused transcardially with ice-cold heparinized 0.1M phosphate buffer solution (PBS) followed by 4% paraformaldehyde in 0.1M PBS at pH 7.4 (VWR International, Lutterworth, Leicester, UK). The brains were harvested and post-fixed in 4% paraformaldehyde in 0.1M PBS at 4° C. and cryoprotected in 0.1M PBS solutions containing 15% sucrose for 24 hours (VWR International, Lutterworth, Leicester, UK) and then 30% sucrose for a further 48 hours. […]
Immunohistochemistry: Fixed brains were collected for immunohistochemical DAB staining for microglia activation using CD11 b and scored as previously described (13).
Methods: Adult C56BL/6J male mice were randomly assigned into groups that were: 1) untreated (naïve) animals; 2) tibial fracture under GA and analgesia; 3) 24 h following tibial surgery, i.p. injection of LPS (1 mg/kg) 4) LPS injection only. Separate cohorts of mice per group were assessed for inflammatory markers (plasma cytokines and microglial activation), or hippocampal-dependent memory using trace fear conditioning (TFC).

For the substance “IL-1Ra: IL-1 receptor antagonist (Amgen, Anakinra)”, the “Contextual fear response (freezing) after LPS, effect of IL-1Ra” value with C57BL/6 male mice is recorded as “significantly ameliorated the memory retention at day 3; also recorded: significantly ameliorated this cognitive dysfunction”. Also, in the assay on microglia, the “Reactive microgliosis in hippocampus (CD11b grading) after surgery, effect of treatment” value was “surgery did not increase hippocampal microgliosis; also recorded: surgery did not activate microglia if IL-1Ra was given pre-operatively”.
